Literature values in US20080104001A1, “ALGORITHM FOR ESTIMATION OF BINDING EQULIBRIA IN INCLUSION COMPLEXATION, HOST COMPOUNDS IDENTIFIED THEREBY AND COMPOSITIONS OF HOST COMPOUND AND PHARMACEUTICAL” (priority 2006, published 2008).
Where two headings read alike, the source gives them in different places.

How the values were obtained:
[1] = for Log K(1:1) Measured: cross-validation set, literature values
[2] = by itself, without cyclodextrin
[3] = training set, published stability constants (Connors, 1995)
[4] = validation set, known binding constants

SMILES	Log K(1:1) [1, 3]	also measured
Oc1cccc2ccccc12 [1-naphthol]	2.09	–
C=CCC1(C(C)CCC)C(=O)NC(=O)NC1=O (stereo not shown) [Secobarbital]	3.26	–
Nc1ccc(-c2ccc(N)cc2)cc1 [benzidine]	–	Log K(1:1) Measured [1]: 3.36
C1CCCC1 [cyclopentane]	1.95	–
c1ccccc1 [benzene]	2.17	–
Oc1ccccc1O [1,2-benzenediol]	2.04	–
CCCCCCC [Heptane]	1.84	–
Ic1ccc(I)cc1 [1,4 diiodobenzene]	–	Log K(1:1) Measured [1]: 3.18
C[C@]12C=CC(=O)C=C1CC[C@H]1[C@@H]3C[C@@H](O)[C@](O)(C(=O)CO)[C@@]3(C)C[C@H](O)[C@@]12F [Triamcinolone]	3.37	–
CCC1(C2=CCCCC2)C(=O)NC(=O)NC1=O [Cyclobarbital]	3.11	–
CCCCOC(=O)c1ccc(O)cc1 [butylparaben]	3.32	–
c1ccc2cc3ccccc3cc2c1 [anthracene]	3.41	–
c1ccc2c(c1)cc1ccc3cccc4ccc2c1c34 [benzo[a]pyrene]	3.34	–
NC(=O)N1c2ccccc2C=Cc2ccccc21 [Carbamazepine]	–	Log K(1:1) Measured [1]: 2.83
CCCOC(=O)c1ccc(O)cc1 [propylparaben]	2.97	–
Brc1ccccc1 [bromobenzene]	2.49	–
OC1CCCCC1 [Cyclohexanol]	2.75	–
Cc1ccc(C)c2ccccc12 [1,4-dimethylnaphthalene]	2.54	–
CCCCCCCCO [1-octanol]	3.29	–
Fc1ccccc1 [fluorobenzene]	1.85	–
Oc1ccc(O)cc1 [1,4-benzenediol]	2.09	Log K(1:1) [1, 4]: 2.09
CCCC(C)O (stereo not shown) [2-pentanol]	1.65	–
Oc1cccc(O)c1 [1,3-benzenediol]	2.04	–
CC(=O)OCC(=O)[C@@]1(O)CC[C@H]2[C@@H]3CCC4=CC(=O)CC[C@]4(C)[C@H]3C(=O)C[C@@]21C [cortisone acetate]	3.62	–
Cc1ccc(C(=O)O)cc1 [p-toluic acid]	–	Log K(1:1) [1, 4]: 3.23

SMILES	Log K(1:1) [1, 3]	also measured
Clc1ccc(Cl)cc1 [1,4-dichlorobenzene]	2.51	–
c1cc2c3c(cccc3c1)CC2 [Acenaphthene]	–	Log K(1:1) [1, 4]: 2.01
CCC1(CC)C(=O)NC(=O)N(C)C1=O [metharbital]	2.36	–
O=C(O)C12CC3CC(CC(C3)C1)C2 [1-adamantanecarboxylic-acid]	5.81	–
Cc1ccc2ccccc2c1 [2-methylnaphthalene]	2.85	–
CC(C)CCO [3-methyl-1-butanol]	2.21	–
CN1C(=O)CC(=O)N(c2ccccc2)c2cc(Cl)ccc21 [clobazam]	–	Log K(1:1) Measured [1]: 1.73
CCCCCO [1-pentanol]	1.97	–
c1ccc2ccccc2c1 [Naphthalene]	–	Log K(1:1) [1, 4]: 2.87
Cc1cccc(O)c1 [3-methylphenol]	2.34	Log K(1:1) [1, 4]: 2.34
Brc1ccc(Br)cc1 [1,4-dibromobenzene]	2.97	–
O=C(c1ccccc1)c1ccccc1 [benzophenone]	3.08	–
O=C(O)c1cccc(O)c1 [3-hydroxybenzoic acid]	–	Log K(1:1) Measured [1]: 2.46
CCC1(CC)C(=O)NC(=S)NC1=O [5,5-diethyl-2-thiobarbituric acid]	2.47	–
O=C(O)Cc1ccccc1Nc1c(Cl)cccc1Cl [Diclofenac]	2.18	–
OC1CCC1 [cyclobutanol]	–	Log K(1:1) Measured [1]: 1.18
CC(C)(C)CO [2,2-dimethylpropanol]	–	Log K(1:1) [1, 4]: 2.69
Clc1ccccc1 [chlorobenzene]	2.2	–
c1cc2ccc3cccc4ccc(c1)c2c34 [pyrene]	2.45	–
Cc1cccc(C)c1C [1,2,3-trimethylbenzene]	2.26	–
O=C(O)C12CCC(CC1)C2 [1-bicyclo[2.2.1]heptanecarboxylic acid]	–	Log K(1:1) Measured [1]: 4.18
O=C(O)c1ccc(O)cc1 [p-hydroxybenzoic-acid]	3.03	Log K(1:1) Measured [1]: 3.03
CC(=O)[C@H]1CC[C@H]2[C@@H]3CCC4=CC(=O)CC[C@]4(C)[C@H]3CC[C@]12C [Progesterone]	4.28	–
CC(=O)OCC(=O)[C@@]1(O)CC[C@H]2[C@@H]3CCC4=CC(=O)CC[C@]4(C)[C@H]3[C@@H](O)C[C@@]21C [hydrocortisone-21-acetate]	–	Log K(1:1) [1, 4]: 3.51
CCN(CC)c1ccccc1 [N,N-diethylaniline]	2.96	–

SMILES	Log K(1:1) [1, 3]	also measured
Nc1ccccc1 [Aniline]	1.89	–
CCCC1(CC)C(=O)NC(=O)NC1=O [5-ethyl-5-propylbarbituric acid]	2.19	–
C1=Cc2cccc3cccc1c23 [Acenaphthylene]	2.41	–
C[C@]12C=CC(=O)C=C1CC[C@@H]1[C@@H]2[C@@H](O)C[C@@]2(C)[C@H]1CC[C@]2(O)C(=O)CO [Prednisolone]	3.45	–
Cc1ccccc1O [2-methylphenol]	2.12	–
C1CCCCCCC1 [Cyclooctane]	3.23	–
COc1ccccc1 [Anisole]	2.14	–
c1ccc2cc3cc4ccccc4cc3cc2c1 [naphthacene]	3.53	–
O=C1CCCCC1 [cyclohexanone]	2.71	–
CC(C)c1ccccc1 [1-methylethylbenzene]	3.08	–
O=C1OC(c2ccc(O)cc2)(c2ccc(O)cc2)c2ccccc21 [phenolphthalein]	4.56	–
CCCCCCCCCC(=O)O [decanoic acid]	–	Log K(1:1) [1, 4]: 3.97
CCCCCCC(C)O (stereo not shown) [2-octanol]	3.13	–
CC(=O)Nc1ccc(O)cc1 [Acetaminophen]	–	Log K(1:1) [1, 4]: 2.03
CCC(C)n1ncn(-c2ccc(N3CCN(c4ccc(OCC5COC(Cn6cncn6)(c6ccc(Cl)cc6Cl)O5)cc4)CC3)cc2)c1=O (stereo not shown) [itraconazole]	–	aqueous solubility [2]: less than 0.1 microgram/mL
CN[C@@H](C)[C@H](O)c1ccccc1 [Ephedrine]	–	Log K(1:1) Measured [1]: 2.25; Log K(1:1) [1, 4]: 2.25
Cc1cccc2c(C)cccc12 [1,5-dimethylnaphthalene]	2.3	–
CC(=O)OCC(=O)[C@@]1(O)CC[C@H]2[C@@H]3CCC4=CC(=O)C=C[C@]4(C)[C@H]3[C@@H](O)C[C@@]21C [prednisolone-21-acetate]	3.76	–
Cc1ccc(C)c(C)c1 [1,2,4-trimethylbenzene]	2.94	–
Cc1cccc2ccccc12 [1-methylnaphthalene]	2.64	–
O=C1CN=C(c2ccccc2Cl)c2cc([N+](=O)[O-])ccc2N1 [clonazepam]	–	Log K(1:1) Measured [1]: 1.9
CCCCCCCC1(CC)C(=O)NC(=O)NC1=O [5-ethyl-5-heptylbarbituric acid]	3.61	–
Fc1ccc(F)cc1 [1,4-difluorobenzene]	1.6	–
C1COCCN1 [morpholine]	1.23	–
c1ccc2c(c1)ccc1ccccc12 [phenanthrene]	3.18	–

SMILES	Log K(1:1) [1, 3]	also measured
C[C@]12CCC(=O)C=C1CC[C@@H]1[C@@H]2[C@@H](O)C[C@@]2(C)[C@H]1CC[C@]2(O)C(=O)CO [Hydrocortisone]	–	Log K(1:1) [1, 4]: 3.46
C[C@]12CCC(=O)C=C1CC[C@@H]1[C@@H]2C(=O)C[C@@]2(C)[C@H]1CC[C@]2(O)C(=O)CO [Cortisone]	3.39	–
OC1CCCCCCC1 [Cyclooctanol]	–	Log K(1:1) [1, 4]: 3.3
CCCCCC(=O)O [hexanoic acid]	2.47	–
C1CCCCC1 [cyclohexane]	2.19	–
ClC(Cl)(Cl)Cl [tetrachloromethane]	2.18	–
C[C@]12CC[C@H]3[C@@H](CCC4=CC(=O)CC[C@@]43C)[C@@H]1CC[C@@H]2O [Testosterone]	3.8	–
Oc1ccc2ccccc2c1 [2-naphthol]	2.77	–
Ic1ccccc1 [iodobenzene]	2.9	–
O=C(O)C=Cc1ccccc1 [cinnamic acid]	–	Log K(1:1) [1, 4]: 2.57
OCc1ccccc1 [benzyl alcohol]	1.7	–
CCCCCC1(CC)C(=O)NC(=O)NC1=O [5-ethyl-5-pentylbarbituric acid]	3.1	–
Nc1ccc(C(=O)O)cc1 [4-aminobenzoic acid]	–	Log K(1:1) Measured [1]: 2.70
CC(C(=O)O)c1ccc(-c2ccccc2)c(F)c1 (stereo not shown) [flurbiprofen]	3.71	–
O=C(O)c1ccccc1O [salicylic-acid]	2.63	–
CC(=O)Oc1ccccc1C(=O)O [acetylsalicylic acid]	–	Log K(1:1) [1, 4]: 3.23
CCOC(=O)c1ccc(N)cc1 [ethyl-p-aminobenzoate]	–	Log K(1:1) [1, 4]: 2.69
CC(=O)OCC(COC(C)=O)OC(C)=O [glyceryl triacetate]	–	Log K(1:1) [1, 4]: 1.15
CCCCC(=O)O[C@]1(C(=O)CO)[C@@H](C)C[C@H]2[C@@H]3CCC4=CC(=O)C=C[C@]4(C)[C@@]3(F)[C@@H](O)C[C@@]21C [betamethasone-17-valerate]	3.32	–
c1ccc(Nc2ccccc2)cc1 [diphenylamine]	3.03	–
c1ccc2nc3ccccc3cc2c1 [Acridine]	2.46	–
COc1ccc2c(c1)c(CC(=O)O)c(C)n2C(=O)c1ccc(Cl)cc1 [indomethacin]	–	Log K(1:1) Measured [1]: 2.72
FF [Fluorine]	–	Log K(1:1) [1, 4]: 3.13
O=C1NC(=O)C(c2ccccc2)(c2ccccc2)N1 [Phenytoin]	2.93	–
